Starred links: 1 amine or outer side, 2 acyl side, 3 side chain; linkers in the order of their positions; H or OH if unused. Residues, ends and D or L forms follow the SMILES beside them. *: point of attachment. X1 = CC[C@@]1(O)C(=O)OCc2c1cc1n(c2=O)Cc2c-1nc1cc(F)c(C)c3c1c2[C@@H](NC(=O)CNC(=O)[C@H](Cc1ccccc1)NC(=O)CNC(=O)CNC(=O)CCCCC(=O)*)CC3; Pteroyl = Nc1nc2ncc(CNc3ccc(C(=O)*)cc3)nc2c(=O)[nH]1; γGlu = O=C(O)[C@H](CCC(=O)[*:2])N[*:1]
Legend:
[1] = Safety evaluation in ICR mice; type: in vivo
Procedure: Experiment purpose: Safety evaluation of CR194AX in ICR mice
Sample preparation: An appropriate amount of CR194AX was weighed and dissolved in PBS, and an appropriate amount of alkaline solution was added to formulate a sample mother solution with a neutral pH, which was filtered and diluted with filtered PBS to a sample solution with a working concentration for later use.
Experimental design: ICR mice (female, 6-8 weeks old, weighing about 25 g) were randomly grouped according to body weight, and the administration was started on the first day of grouping. The dosage was adjusted according to the latest body weight of the mice, and the administration was performed via tail vein injection at an administration volume of 10 μl/g. After grouping and administration, the effects of the drugs on the normal behaviors of the animals, including the activity, food intake and drinking status, body weight, eyes, hair, feces, secretions and other abnormalities of the experimental animals, were tested. The body weight of the mice was measured twice a week and observed for 8 days after the last administration. At the end of the experiment, the liver and spleen were weighed, and the liver, spleen, lung, kidney and stomach were taken out and placed in 10% formalin neutral fixative for HE analysis. Sample preparation: An appropriate amount of the compound was weighed and dissolved in PBS, and an appropriate amount of alkaline solution was added to formulate a sample mother solution with a neutral pH, which was filtered and diluted with filtered physiological saline to a sample solution with a working concentration for later use.

HEK293T-FOLR1 cells [2] = test: Cell expansion inhibition assay (CCK-8, 72 h), Table 4; type: cell-based, human
Procedure: (§1) Cell lines: HEK293T-FOLR1 (a stably transformed cell line overexpressing FOLR1), SK-BR-3 (human breast cancer cell with low expression of FOLR1) and MIA PaCa2 (human pancreatic cancer cell without expression of FOLR1).
(§2) Main reagents: 1640 folic acid-free medium, fetal bovine serum, penicillin-streptomycin solution, L-glutamine and CCK8.
(§3) (1) Cell plating: Cells were prepared in advance, digested with Trypsin, collected and counted. A complete cell culture medium was used to dilute SK-BR-3 cells to 3.0×10^4 cells/ml, HEK293T-FOLR1 cells to 1.5×10^4 cells/ml, and MIA PaCa-2 cells to 2.0×10^4 cells/ml. 100 μl of diluted cell solution was added to each well of 96-well plates, and negative and blank control wells were set on each plate. The 96-well plates added with the cells were placed in an incubator at 37° C., 5% CO2 for culturing overnight.
(§4) (2) Diluting and adding samples: The samples were serially diluted with medium (the starting concentration was 30 μM, 5-fold serial dilution), and a total of 10 concentration gradients were set. To each well of the 96-well plates that were cultured overnight, 50 μl of the diluted samples were added, with 3 replicate wells; negative controls and blank controls were set; and the plates were placed in an incubator at 37° C., 5% CO2 for culturing 72 h.
(§5) (3) Color development and reading plate: To each well, 15 μl (10% of the liquid volume in a well) of a color developing solution from CCK-8 was added; the plates were incubated at 37° C. for an appropriate time (try to keep the OD value in the range of 1.0-2.5); the covers of the 96-well plates were removed, and the plates were read at 450 nm on a microplate reader (Molecular Devices SpectraMax iD5).
(§6) (4) Data processing: The data was edited using SoftMax Pro 7.1 and a four-parameter fitting curve was plotted.

SK-BR-3 cells [3] = test: as above; type: cell-based, human
Procedure: as §1, §2, §3, §4, §5, §6

MIA PaCa2 cells = test: as above; type: cell-based, human; conditions: without expression of FOLR1, read-out: MIAPACA-2 IC50
Procedure: as §1, §2, §3, §4, §5, §6

HEK293T-FOLR1 cells [4] = test: Cell expansion inhibition assay (CCK-8, 72 h), Table 3; type: cell-based, human; conditions: FOLR1 high expression
Procedure: (§7) Cell lines: HEK293T-FOLR1 (a stably transformed cell line overexpressing FOLR1), SK-BR-3 (human breast cancer cell) and HEK293T (human embryonic kidney cell).
as §2
(§8) (1) Cell plating: Cells were prepared in advance, digested with Trypsin, collected and counted. A complete cell culture medium was used to dilute HEK293T-FOLR1 and HEK293T cells to 6×10^3 cells/ml, and dilute SK-BR-3 cells to 1.5×10^4 cells/ml. 100 μl of diluted cell solution was added to each well of 96-well plates, and negative and blank control wells were set on each plate. The 96-well plates added with the cells were placed in an incubator at 37° C., 5% CO2 for culturing overnight.
as §4, §5, §6

SK-BR-3 cells [5] = test: as above; type: cell-based, human; conditions: FOLR1 low expression
Procedure: as §7, §2, §8, §4, §5, §6

HEK293T cells = test: as above; type: cell-based, human; conditions: no visible FOLR1 expression
Procedure: as §7, §2, §8, §4, §5, §6

[6] = 50 mg/kg, qw*3 and q3d*6, tail vein

Compound: CC[C@@]1(O)C(=O)OCc2c1cc1n(c2=O)Cc2c-1nc1cc(F)c(C)c3c1c2[C@@H](NC(=O)CNC(=O)[C@H](Cc1ccccc1)NC(=O)CNC(=O)CNC(=O)CCCCC(=O)NCCCC[C@H](NC(=O)[C@H](CS)NC(=O)CC[C@H](NC(=O)c1ccc(NCc2cnc4nc(N)nc(O)c4n2)cc1)C(=O)O)C(=O)N[C@@H](CCC(=O)O)C(=O)N[C@@H](Cc1ccccc1)C(=O)N[C@@H](CC(C)C)C(=O)N[C@@H](Cc1c[nH]cn1)C(=O)N1CCC[C@H]1C(=O)N[C@@H](CO)C(=O)N[C@@H](CCCCN)C(=O)N[C@H](C(=O)N[C@@H](CC(=O)O)C(=O)N[C@@H](CC(C)C)C(=O)N1CCC[C@H]1C(=O)N[C@@H](CCCNC(=N)N)C(=O)O)C(C)C)CC3 [CR194AX] ({Pteroyl-γGlu}-CK(X1)EFLHPSKVDLPR-OH)
- average weight loss of the mice ([1]; 25 mg/kg q3d*6, tail vein): ≤ 5%
- mortality during the administration ([1]; 25 mg/kg q3d*6, tail vein): no mice died
- tolerance ([1]; 25 mg/kg q3d*6, tail vein): good tolerance
- average weight loss of the mice [1, 6]: ≤ 10%
- mortality during the administration period [1, 6]: no mice died
- tolerance [1, 6]: good tolerance
- weights of the liver and spleen compared with the negative control group ([1]; each administration group, end of experiment): no significant difference

Compound: CCc1c2c(nc3ccc(O)cc13)-c1cc3c(c(=O)n1C2)COC(=O)[C@]3(O)CC [SN38]
- IC50 (HEK293T-FOLR1 cells [2]): 0.943 nM
- IC50 (SK-BR-3 cells [3]): 0.947 nM
- IC50 (MIA PaCa2 cells): 7.03 nM

Compound: CC[C@@]1(O)C(=O)OCc2c1cc1n(c2=O)Cc2c-1nc1cc(F)c(C)c3c1c2[C@@H](NC(=O)CO)CC3 [Dxd]
- IC50 (HEK293T-FOLR1 cells [2]): 1.68 nM
- IC50 (MIA PaCa2 cells): 111 nM

Compound: CC[C@@]1(O)C(=O)OCc2c1cc1n(c2=O)Cc2c-1nc1cc(F)c(C)c3c1c2[C@@H](N)CC3 [Dx]
- IC50 (HEK293T-FOLR1 cells [4]): 1.02 nM
- IC50 (SK-BR-3 cells [5]): 0.599 nM
- IC50 (HEK293T cells): 1.12 nM
- IC50 (HEK293T-FOLR1 cells [2]): 0.995 nM
- IC50 (SK-BR-3 cells [3]): 0.569 nM
- IC50 (MIA PaCa2 cells): 5.53 nM

From patent publication US20240358843A1, “LIGAND-DRUG CONJUGATE AND USE THEREOF” (priority 2021, published 2024)
